Source: BindingDB's records for doi:10.1016/j.chembiol.2003.08.010 (Brigham and Women's Hospital, 2003)

Experiments:
[1] = molecular target: T1, Ubiquitin carboxyl-terminal hydrolase isozyme L1 (Mus musculus, UniProt Q9R0P9); test: Inhibition Activity Assay; conditions: pH 7.6; 25 °C
T1 sequence (Q9R0P9 whole entry): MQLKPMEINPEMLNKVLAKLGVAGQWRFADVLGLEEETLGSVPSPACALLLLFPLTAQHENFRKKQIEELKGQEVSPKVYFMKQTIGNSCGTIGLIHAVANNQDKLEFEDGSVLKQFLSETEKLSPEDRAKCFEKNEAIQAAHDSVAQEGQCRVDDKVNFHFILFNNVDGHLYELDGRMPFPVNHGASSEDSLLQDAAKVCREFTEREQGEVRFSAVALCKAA
Description: (§1) Inhibition activity and selectivity for UCH-L1 and UCH-L3.

[2] = molecular target: T2, Ubiquitin carboxyl-terminal hydrolase isozyme L3 (Mus musculus, UniProt Q9JKB1); test: Inhibition Activity Assay; conditions: pH 7.6; 25 °C
T2 sequence (Q9JKB1 whole entry): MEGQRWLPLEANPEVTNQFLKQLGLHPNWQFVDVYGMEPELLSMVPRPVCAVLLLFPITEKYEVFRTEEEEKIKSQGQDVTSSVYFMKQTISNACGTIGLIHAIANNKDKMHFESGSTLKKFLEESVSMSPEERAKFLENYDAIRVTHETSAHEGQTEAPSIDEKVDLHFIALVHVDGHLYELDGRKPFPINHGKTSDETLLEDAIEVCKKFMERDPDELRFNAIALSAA
Description: as §1

IC50 [1]	IC50 [2]	SMILES
8.8 µM	–	CC(C)=CCOc1ccc([C@@H]2COc3c(ccc4c3C=CC(C)(C)O4)C2)c(O)c1 [MLS000697599]
1.3 µM	–	Cc1ccc(OCCCCc2c(C)n[nH]c2C)cc1 [MLS001001654]
2.7 µM	–	CC(C)NC(=S)NC(c1ccccc1)(c1ccccc1)c1ccccc1 [MLS001008525]
114 µM	–	COc1ccc(CC2=CC(=O)c3ccccc3C2=O)cc1 [MLS001163415]
> 100 µM	–	COc1ccc(Nc2nc(NN)nc(Nc3ccc(OC)cc3)n2)cc1 [MLS001185433]
50 µM	–	CC[n+]1c(/C=C/N(C)c2ccccc2)n(-c2ccccc2)c2ccc(-c3nc4ccccc4s3)cc21 [MLS001207496]
15 µM	–	CC(C)(C)c1ccc(O)c(N=Cc2c(O)ccc3ccccc23)c1 [MLS001211069]
18 µM	–	COc1cc(/C=C2/SC(=S)N(Cc3ccccc3)C2=O)ccc1O [MLS001211321]
12 µM	–	CC(C)=CCc1c2c(c(O)c3c(=O)c4c(oc13)-c1cc(O)c(O)cc1OC4C=C(C)C)C=CC(C)(C)O2 (configuration not stated) [SMR000470928]
1.8 µM	–	C=CC(C)(C)c1c(O)c(CC=C(C)C)c(O)c2c(=O)c3ccc(O)c(O)c3oc12 [SMR000470960]
45 µM	–	COc1cc(C)c(C(=O)CC(=O)c2c(C)cc(OC)cc2C)c(C)c1 [SMR000475659]
22 µM	–	COc1ccc(-c2csc(NC(=O)c3ccc(C(C)(C)C)cc3)c2C(=O)O)cc1 [SMR000475974]
21 µM	–	COc1cccc(C(=O)Oc2ccc(CN=Nc3ccc(C(=O)O)cc3)cc2OC)c1 [SMR000502791]
14 µM	–	Oc1c(Br)cc(Br)cc1CNc1cccc2cccnc12 [SMR000503121]
19 µM	–	Cc1ccc(OCCn2c(S)nc3ccccc32)c(C(C)C)c1 [SMR000515074]
4.1 µM	–	Clc1cccc(Cl)c1C1Nc2cccc3cccc(c23)N1 [SMR000515760]
12 µM	–	CCCc1cc(=O)n2[nH]c(C)c(-c3ccc(Cl)cc3)c2n1 [SMR000518792]

Second part, the compound before the results:

SMILES	IC50 [1]	IC50 [2]
CC(C)(C)OC(=O)[C@H](Cc1ccccc1)NC(=O)c1[nH]cnc1C(=O)Nc1cccc(Cl)c1	17 µM	–
COC(=O)[C@H]1[C@H](CCc2ccccc2)NC(=O)N(Cc2ccccc2)[C@@H]1C	51 µM	116 µM
CN1CCN(C2Cc3ccc(Cl)cc3Sc3ccc(F)cc32)CC1 (configuration not stated)	321 µM	–
Cc1ccccc1C(=O)Nc1scc(-c2ccc(Br)cc2)c1C(=O)O	6 µM	32 µM
O=C1C=CC([N+](=O)[O-])=CC1/C=N/NC(=O)C(O)(c1ccccc1)c1ccccc1 (configuration not stated)	9.5 µM	–
COc1ccc(N=Nc2cc(-c3ccccc3)ccc2O)cc1	12 µM	–
CCCCn1c(=O)c(C(=O)NCc2ccccc2)c(O)c2ccccc21	6.1 µM	–
Cc1ccc(C(=O)NC(=S)NNC(=O)c2cccc([N+](=O)[O-])c2)cc1	36 µM	–
CCCOc1ccc(/C=C/c2c([N+](=O)[O-])c(=O)n(C)c(=O)n2C)cc1 [1,3-dimethyl-5-nitro-6-[(E)-2-(4-propoxyphenyl)vinyl]pyrimidine-2,4-quinone]	0.81 µM	17 µM
COc1cccc(NC(=O)Nc2nc(SC(C)(C)C)ns2)c1 [1-(3-tert-butylsulfanyl-1,2,4-thiadiazol-5-yl)-3-(3-methoxyphenyl)urea]	16 µM	–
CCSc1nsc(NC(=O)Nc2cccc(F)c2)n1 [1-[3-(ethylthio)-1,2,4-thiadiazol-5-yl]-3-(3-fluorophenyl)urea]	16 µM	–
Cc1cc(Cl)c2oc(C(=O)N3CCC(O)(c4ccccc4)CC3)c(C)c2c1 [1-[(7-chloro-3,5-dimethyl-1-benzofuran-2-yl)carbonyl]-4-phenylpiperidin-4-ol]	1.2 µM	25 µM
NC(=S)NN=Cc1ccc(C23CC4CC(CC(C4)C2)C3)cc1 [1-[[4-(1-adamantyl)phenyl]methylideneamino]thiourea]	52 µM	–
CCCCn1c(=O)c(C(=O)NCCc2ccccc2)c(O)c2ccccc21 [1-butyl-2-oxidanyl-4-oxidanylidene-N-(2-phenylethyl)quinoline-3-carboxamide]	12 µM	–
Cc1ccc(-c2cc(-c3ccccc3)nc(N(C)N)n2)cc1 [1-methyl-1-[4-(4-methylphenyl)-6-phenylpyrimidin-2-yl]hydrazine]	4.1 µM	113 µM
COc1ccc2nc(C3CCCCC3)nc(C3CCCCC3)c2c1 [2,4-Dicyclohexyl-6-methoxy-quinazoline]	126 µM	47 µM
Cc1cccc(OCC(=O)Nc2ccncc2)c1 [2-(3-methylphenoxy)-N-pyridin-4-yl-ethanamide]	36 µM	–
CCN(CC)c1nc(Nc2ccc([N+](=O)[O-])cc2)nc(N(CC)CC)n1 [2-N,2-N,4-N,4-N-tetraethyl-6-N-(4-nitrophenyl)-1,3,5-triazine-2,4,6-triamine]	2.9 µM	18 µM
Cc1ccc(Cn2c(C(CO)Nc3nc(-c4ccc(F)cc4)cs3)nc3ccccc32)cc1 (configuration not stated) [2-[4-(4-Fluoro-phenyl)-thiazol-2-ylamino]-2-[1-(4-methyl-benzyl)-1H-benzoimidazol-2-yl]-ethanol]	8.8 µM	–
CCOC(=O)C1=C(C)N=c2sc(=Cc3ccc(OCC(=O)O)c(OC)c3)c(=O)n2C1c1ccc(Cl)cc1 (configuration not stated) [2-[4-[[6-carbethoxy-5-(4-chlorophenyl)-3-keto-7-methyl-5H-thiazolo[3,2-a]pyrimidin-2-ylidene]methyl]-2-methoxy-phenoxy]acetic acid]	43 µM	–
COc1ccccc1-c1cc(-c2ccccc2)nc(SCC(=O)O)c1C#N [2-[[3-cyano-4-(2-methoxyphenyl)-6-phenyl-2-pyridinyl]thio]acetic acid]	0.94 µM	23 µM

SMILES	IC50 [1]	IC50 [2]
O=[N+]([O-])c1c(Nc2cccc(O)c2)cc(Cl)c2nonc12 [3-[(7-chloro-4-nitro-benzofurazan-5-yl)amino]phenol]	> 100 µM	–
Cc1cccc(C(=O)Nc2scc(-c3ccc(Br)cc3)c2C(=O)O)c1 [4-(4-bromophenyl)-2-[(3-methylphenyl)carbonylamino]thiophene-3-carboxylic acid]	6.2 µM	–
O=C(Nc1scc(-c2ccc(Br)cc2)c1C(=O)O)c1ccccc1F [4-(4-bromophenyl)-2-[[(2-fluorophenyl)-oxomethyl]amino]-3-thiophenecarboxylic acid]	12 µM	–
c1ccc(-c2nc(C3CCCCC3)c3ccccc3n2)cc1 [4-Cyclohexyl-2-phenyl-quinazoline]	75 µM	0.6 µM
CC(=NNC(=O)c1ccc(C)cc1)c1c(C)[nH]n(-c2ccccc2)c1=O [4-Methyl-benzoic acid N'-[1-(3-methyl-5-oxo-1-phenyl-1,5-dihydro-pyrazol-4-ylidene)-ethyl]-hydrazide]	95 µM	–
CC(C)c1ccc(C=Nn2c(-c3ccccc3)n[nH]c2=S)cc1 [4-[(4-Isopropyl-benzylidene)-amino]-5-phenyl-4H-[1,2,4]triazole-3-thiol]	13 µM	–
Brc1cc(-c2ccccc2)nc(-c2ccccc2)n1 [4-bromo-2,6-diphenyl-pyrimidine]	13 µM	–
O=C1C=C(N2CCCCC2)c2ccccc2C1=O [4-piperidin-1-ylnaphthalene-1,2-dione]	78 µM	–
CC(C)=CCc1cc([C@@H]2COc3c(ccc4c3C=CC(C)(C)O4)C2)c(O)cc1O [5'-prenyl-glabridin]	6.1 µM	–
CC1(C)CC(=O)C(C2C3=C(CC(C)(C)CC3=O)Oc3c(Br)cc(Br)cc32)C(=O)C1 (configuration not stated) [5,7-bis(bromanyl)-9-(4,4-dimethyl-2-oxidanyl-6-oxidanylidene-cyclohexen-1-yl)-3,3-dimethyl-4,9-dihydro-2H-xanthen-1-one]	12 µM	–
Cc1nc(N=NCc2ccc3c(c2)OCO3)sc1C [(4,5-dimethylthiazol-2-yl)-(piperonylideneamino)amine]	5.8 µM	–
COc1cccc(CN=Nc2cc(N3CCOCC3)ncn2)c1O [(6E)-2-methoxy-6-[[N'-(6-morpholinopyrimidin-4-yl)hydrazino]methylene]cyclohexa-2,4-dien-1-one]	6.1 µM	–
CCOc1ccc(CN=Nc2cc(N3CCOCC3)nc(C)n2)c(O)c1 [(6E)-3-ethoxy-6-[[2-(2-methyl-6-morpholin-4-yl-pyrimidin-4-yl)hydrazinyl]methylidene]cyclohexa-2,4-dien-1-one]	19 µM	–
O[C@@H]1CCCN2CCc3c([nH]c4ccccc34)[C@H]12 [MLS000728593]	3.4 µM	–
O=C1C([N+](=O)[O-])=CC(Cl)=CC1/C=N/NC(=O)C(O)(c1ccccc1)c1ccccc1 (configuration not stated) [N''''-[(E)-(3-chloro-5-nitro-6-oxocyclohexa-2,4-dien-1-ylidene)methyl]-2-hydroxy-2,2-diphenylacetohydrazide]	16 µM	–
O=C(NC12CC3CC(CC(C3)C1)C2)c1ccc([N+](=O)[O-])o1 [N-(1-adamantyl)-5-nitrofuran-2-carboxamide]	6.5 µM	–
COc1cc(OC)c([C@H]2C=C(C)[C@H]3C[C@@H]2C3(C)C)c(OC)c1 [SMR000475707]	80 µM	–
Cc1c(Cl)cccc1-c1ccc(CNCc2ccccn2)o1 [[5-(3-Chloro-2-methyl-phenyl)-furan-2-ylmethyl]-pyridin-2-ylmethyl-amine]	> 100 µM	–
CC1Oc2cc3oc4c(O)c5c(cc4c(=O)c3c(O)c2C1(C)C)C=CC(C)(C)O5 (configuration not stated) [gerontoxanthone A]	4.1 µM	–
CC1Oc2cc3oc4c(O)c(O)ccc4c(=O)c3c(O)c2C1(C)C (configuration not stated) [toxyloxanthone C]	3.4 µM	–
